Measured values reported in patent US20150011566A1, “N-PHENYLPIPERAZINE DERIVATIVES THAT ARE ANTAGONISTS OF A1A, A1D ADRENOCEPTORS AND 5-HT1A RECEPTORS FOR THE TREATMENT OF BENIGN PROSTATE HYPERPLASIA, PHARMACEUTICAL COMPOSITIONS CONTAINING THE SAME” (UNIVERSIDADE FEDERAL DO RIO DE JANEIRO-UFRJ, priority 2012, published 2015).
Marks after values point to notes of the source that are not given here.

How the values were obtained:
[1] = target: D2-Like receptors (Rattus norvegicus, UniProt P61169); assay: D2-like receptors binding assay, [3H]-YM 09151-2 (rat striatal membranes); settings: Table 15; for Ki: Cheng-Prusoff
Chain of D2-Like receptors (P61169 whole entry): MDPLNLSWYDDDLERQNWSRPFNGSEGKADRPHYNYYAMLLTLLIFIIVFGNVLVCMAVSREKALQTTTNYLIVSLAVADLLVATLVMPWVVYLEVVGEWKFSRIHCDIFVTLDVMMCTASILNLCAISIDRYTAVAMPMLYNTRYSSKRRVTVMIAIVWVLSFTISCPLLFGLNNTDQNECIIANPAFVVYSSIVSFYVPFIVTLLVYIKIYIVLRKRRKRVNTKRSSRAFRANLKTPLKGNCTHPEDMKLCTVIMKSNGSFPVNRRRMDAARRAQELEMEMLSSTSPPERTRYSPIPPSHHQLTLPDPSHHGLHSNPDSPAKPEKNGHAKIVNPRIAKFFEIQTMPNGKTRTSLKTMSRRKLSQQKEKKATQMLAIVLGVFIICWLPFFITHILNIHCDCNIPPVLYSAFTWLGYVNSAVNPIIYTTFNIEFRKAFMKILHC
Procedure: Briefly, organs were homogenized for 30 seconds three times in Fisatom in 50 mM Tris-HCl, MgCl2 8 mM, 5 mM EDTA (pH 7.4 at 4° C.) and then centrifuged at 48,000×gav (20 minutes 4° C.). The pellet was resuspended in 50 mM Tris-HCl, 8 mM MgCl2, 5 mM EDTA (pH 7.4 at 37° C.), incubated at 37° C. for 10 minutes and centrifuged twice more. The final pellet was resuspended in the same buffer at a concentration of 1.5 mL/g tissue.
Non-specific binding was measured in the presence of 30 μM sulpiride. Assays were performed in triplicate.
The radioactivity retained on the filters was then determined in a liquid scintillation counter (Packard Tri-Carb 1600 TR). For these receptors were also determined IC50 and Ki parameters.

[2] = Acute toxicity test in Swiss mice (body temperature, behaviour for 14 days); assay type: in vivo; settings: n=6; for T (° C.) Basal Measure: body temperature before treatment; for T (° C.) 30′ after LDT / T (° C.) 60′ after LDT: body temperature, 100 mg/kg ip
Procedure: Swiss mice (female, 25-30 g, 6 animals per condition) were treated with LDT via intraperitoneal with LTD's at a dose of […] and observed for 14 days in the behavioral framework according to described method (LORKE, D., Arch Toxicol, 54 (4): 275-87, 1983, modified). The temperature was measured by retal probe before and after 30 and 60 min of described treatment.

[3] = target: T1, α1D receptors (Homo sapiens, UniProt P25100); assay: Cell proliferation in vitro, DU-145 cells stimulated with phenylephrine (MTT); assay type: cell-based; settings: for Proliferation percentage in relation to basel (100%) in the presence of LDT's, α1D: 48 h; for inhibition of the effect of the α1D receptors stimulus on proliferation: LDT3 50 nM, LDT66 20 nM
T1 construct: endogenous in cells; host or cells: DU-145
T1 sequence (P25100 1-572): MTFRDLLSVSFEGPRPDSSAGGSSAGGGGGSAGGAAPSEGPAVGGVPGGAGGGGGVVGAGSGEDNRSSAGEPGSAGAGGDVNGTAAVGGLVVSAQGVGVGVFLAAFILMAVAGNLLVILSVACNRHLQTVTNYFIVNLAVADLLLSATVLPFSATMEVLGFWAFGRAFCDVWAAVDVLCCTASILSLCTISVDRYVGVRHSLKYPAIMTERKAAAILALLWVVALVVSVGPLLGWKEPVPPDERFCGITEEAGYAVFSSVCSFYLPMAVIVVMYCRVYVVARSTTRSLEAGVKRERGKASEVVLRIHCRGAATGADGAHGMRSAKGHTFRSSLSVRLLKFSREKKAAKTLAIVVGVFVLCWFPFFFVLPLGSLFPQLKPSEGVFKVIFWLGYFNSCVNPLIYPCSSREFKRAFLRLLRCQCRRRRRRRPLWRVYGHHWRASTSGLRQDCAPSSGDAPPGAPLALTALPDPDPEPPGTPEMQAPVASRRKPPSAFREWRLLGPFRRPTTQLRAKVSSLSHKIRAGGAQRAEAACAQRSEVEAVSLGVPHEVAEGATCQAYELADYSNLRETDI
Procedure: (§1) Human prostate cancer cells (DU-145) were cultured in medium (RPMI 1640) until confluence. Then the cells were dissociated, plated (5×10^3 cells/well) and maintained in medium free of fetal bovine serum for 24 hours. […] Cell proliferation was assessed by using the MTT technique (MOSMANN, T. Immunol Methods. 16; 65 (1-2):55-63, 1983).

[4] = target: T2, 5-HT1A receptors (Homo sapiens, UniProt P08908); assay: Cell proliferation in vitro, DU-145 cells stimulated with 5-HT (MTT); assay type: cell-based; settings: for Proliferation percentage in relation to basel (100%) in the presence of LDT's, 5HT1A: 48 h; for inhibition of the effect of the 5-HT1A receptors stimulus on proliferation: LDT3 50 nM, LDT66 20 nM
T2 construct: endogenous in cells; host or cells: DU-145
T2 sequence (P08908 1-422): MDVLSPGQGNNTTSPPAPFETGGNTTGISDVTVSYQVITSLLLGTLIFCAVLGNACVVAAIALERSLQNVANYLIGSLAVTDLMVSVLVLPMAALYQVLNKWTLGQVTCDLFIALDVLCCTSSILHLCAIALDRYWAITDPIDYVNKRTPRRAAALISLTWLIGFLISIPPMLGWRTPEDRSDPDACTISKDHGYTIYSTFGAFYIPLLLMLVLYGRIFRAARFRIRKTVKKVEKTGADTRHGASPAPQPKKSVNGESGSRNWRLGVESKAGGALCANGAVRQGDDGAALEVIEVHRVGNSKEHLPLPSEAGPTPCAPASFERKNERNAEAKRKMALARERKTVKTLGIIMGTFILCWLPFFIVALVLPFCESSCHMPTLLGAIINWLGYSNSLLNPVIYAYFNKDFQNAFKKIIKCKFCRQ
Procedure: as §1

[5] = target: T3, α1D adrenoceptors (Rattus norvegicus, UniProt P23944); assay: Phenylephrine-induced contraction inhibition in rat aorta (isometric contraction, Schild KB); assay type: cell-based; settings: ratio of EC50 in presence and absence of test substance, 2 nM
T3 construct: the rat thoracic aorta corresponds to a tissue expressing mainly α1D-adrenoceptors; from tissue; host or cells: rat thoracic aorta rings
T3 sequence (P23944 1-561): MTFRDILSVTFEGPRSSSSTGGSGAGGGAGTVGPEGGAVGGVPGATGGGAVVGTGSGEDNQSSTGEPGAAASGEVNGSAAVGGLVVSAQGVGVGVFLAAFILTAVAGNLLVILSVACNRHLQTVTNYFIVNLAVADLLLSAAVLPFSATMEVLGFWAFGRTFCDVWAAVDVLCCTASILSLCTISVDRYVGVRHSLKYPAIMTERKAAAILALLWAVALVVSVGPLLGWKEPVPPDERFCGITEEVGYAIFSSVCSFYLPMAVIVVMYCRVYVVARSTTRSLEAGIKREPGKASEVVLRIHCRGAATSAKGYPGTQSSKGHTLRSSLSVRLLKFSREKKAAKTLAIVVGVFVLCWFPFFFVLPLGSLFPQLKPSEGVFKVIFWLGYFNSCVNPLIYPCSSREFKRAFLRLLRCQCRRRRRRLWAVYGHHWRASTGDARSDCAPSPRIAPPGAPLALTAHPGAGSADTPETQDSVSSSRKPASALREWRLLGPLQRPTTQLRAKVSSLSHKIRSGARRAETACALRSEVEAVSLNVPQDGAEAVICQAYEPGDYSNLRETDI

[6] = DU-145, phenylephrine 3 μM + test substance 50 nM
[7] = DU-145, 5-HT 1 μM + test substance 50 nM

Row | Structure (SMILES) | -log IC50 (M) [1] [M] | Ki [1] [nM] | T (° C.) Basal Measure [2] [°C] | T (° C.) 30′ after LDT [2] [°C] | T (° C.) 60′ after LDT [2] [°C] | Proliferation percentage in relation to basel (100%) in the presence of LDT's, 5HT1A [4, 7] | other results
1 | CCCCCCCCN1CCN(c2ccccc2OC)CC1 [LDT 68] | 7.49 ± 0.09 | 9 | – | – | – | – | –
2 | CCCCCCCN1CCN(c2ccccc2OC)CC1 [LDT 67] | 7.47 ± 0.07 | 9 | – | – | – | – | –
3 | CCCCCN1CCN(c2ccccc2OC)CC1 [LDT 65] | – | – | 37.17 | 37.17 | 37.17 | – | –
4 | CCOc1ccccc1N1CCN(CCc2ccc3c(c2)OCO3)CC1 [LDT 8] | – | – | 35.67 | 35.67 | 35.50 | – | Proliferation percentage in relation to basel (100%) in the presence of LDT's, α1D ([3]; DU-145, phenylephrine 3 μM + test substance 5 nM): 124.05 ± 9.6%; Proliferation percentage in relation to basel (100%) in the presence of LDT's, 5HT1A ([4]; DU-145, 5-HT 1 μM + test substance 5 nM): 138.4 ± 42.9%
5 | CCCCCCN1CCN(c2ccccc2OC)CC1 [LDT 66] | 6.92 ± 0.11 | 40 | 37.00 | 37.50 | 37.33 | 110.8 ± 7.7^b % | Proliferation percentage in relation to basel (100%) in the presence of LDT's, α1D [3, 6]: 76 ± 7.7^a %; inhibition of the effect of the α1D receptors stimulus on proliferation [3]: inhibited the effect; inhibition of the effect of the 5-HT1A receptors stimulus on proliferation [4]: inhibited the effect
6 | COc1ccc(CCN2CCN(c3ccccc3OC)CC2)cc1OC [LDT 5] | – | 100 | 35.00 | 35.50 | 35.17 | 118.8 ± 9.9% | Proliferation percentage in relation to basel (100%) in the presence of LDT's, α1D [3, 6]: 117.3 ± 8.9%
7 | COc1cccc(CCN2CCN(c3ccccc3OC)CC2)c1 [LDT 3] | – | – | 35.33 | 35.50 | 35.50 | 96.9 ± 5.8^b % | Proliferation percentage in relation to basel (100%) in the presence of LDT's, α1D ([3]; DU-145, phenylephrine 3 μM + test substance 500 nM): 99.2 ± 5.8^a %; inhibition of the effect of the α1D receptors stimulus on proliferation [3]: inhibited the effect; inhibition of the effect of the 5-HT1A receptors stimulus on proliferation [4]: inhibited the effect
8 | CCOc1ccccc1N1CCN(CCc2ccc(OC)c(OC)c2)CC1 [LDT 245] | – | – | – | – | – | – | CR ± EPM [5]: 3.9 ± 1.0
